Experimental data: patent publication US20230096766A1, “AMINO ACID HAVING FUNCTIONAL GROUP CAPABLE OF INTERMOLECULAR HYDROGEN BONDING, PEPTIDE COMPOUND CONTAINING SAME AND METHOD FOR PRODUCTION THEREOF” (Chugai Seiyaku Kabushiki Kaisha, priority 2018, published 2023)
*1 amine or outer side, *2 acyl side, *3 side chain or, on linkers, in order; H or OH if unused. Where a SMILES comes first, the peptide text is derived from it. Bridges are numbered along the chain shown (N, C = ends). [ ]: non-standard residue; d: D form. The star is where a group is joined. ξ: configuration not given here. NMePhe(3-Cl) = CN[C@@H](Cc1cccc(Cl)c1)C(=O)O; NMehPhe = CN[C@@H](CCc1ccccc1)C(=O)O; hhPhe = N[C@@H](CCCc1ccccc1)C(=O)O; NMeF = CN[C@@H](Cc1ccccc1)C(=O)O; NMeGABA = CN(CCCC(=O)[*:2])[*:1]; NMeI = CC[C@H](C)[C@H](NC)C(=O)O; hPhe = N[C@@H](CCc1ccccc1)C(=O)O; 3Pal = N[C@@H](Cc1cccnc1)C(=O)O; NMeD = CN[C@@H](CC(=O)O)C(=O)O; NMeL = CN[C@@H](CC(C)C)C(=O)O; NMeV = CN[C@H](C(=O)O)C(C)C; NMeA = CN[C@@H](C)C(=O)O; Piperidide = C1CCN(*)CC1; dNMeA = CN[C@H](C)C(=O)O; NPrGly = CCCNCC(=O)O; X2 = Fc1cncc(C*)c1; Bn = c1ccc(C*)cc1; ξS = NC(CO)C(=O)O; Sar = CNCC(=O)O; tBu = CC(C)(C)*

Key:
in vitro = settings: human, Caco-2, Caco-2 (cm/sec)

| SMILES | Caco-2 (Caco-2) [cm/s] | Papp (in vitro) [nm/s] |
| --- | --- | --- |
| CC(C)C[C@H]1C(=O)N[C@@H](COC(C)(C)C)C(=O)N(C)[C@@H](Cc2ccccc2)C(=O)N(C)[C@@H](C(C)C)C(=O)N[C@H](C(=O)N2CCCCC2)CC(=O)N[C@H](C(C)C)C(=O)N(C)[C@@H](Cc2ccccc2)C(=O)N[C@@H](COc2cccc(Cl)c2)C(=O)N(C)[C@@H](C)C(=O)N[C@@H]([C@@H](C)O)C(=O)N(C)CC(=O)N1C [pd187] | 1.9e-06 | 19 |
| CC[C@H](C)[C@H]1C(=O)N[C@H](C(=O)N2CCCCC2)CC(=O)N(C)CC(=O)N(C)[C@@H](Cc2ccccc2)C(=O)N[C@@H](CCCc2ccccc2)C(=O)N(C)[C@@H](CC(C)C)C(=O)N[C@@H]([C@@H](C)O)C(=O)N(C)CC(=O)N(C)[C@@H](Cc2ccccc2)C(=O)N(C)[C@@H](CC(C)C)C(=O)N[C@@H](COC(C)(C)C)C(=O)N1C [pd189] ([Sar][NMeF][hhPhe][NMeL]T[Sar][NMeF][NMeL]S(tBu)[NMeI]D-Piperidide; lactam N-11) | 1.8e-06 | 18 |
| CC(C)C[C@@H]1NC(=O)[C@H](Cc2ccccc2)N(C)C(=O)[C@H](C)N(C)C(=O)C[C@@H](C(=O)N2CCCCC2)NC(=O)[C@H](C(C)C)N(C)C(=O)[C@H](Cc2ccccc2)N(C)C(=O)[C@H](COC(C)(C)C)NC(=O)[C@H](CC(C)C)N(C)C(=O)CN(C)C(=O)[C@H](Cc2cccnc2)NC(=O)[C@H](CC(C)C)N(C)C1=O [pd197] ([NMeA][NMeF]L[NMeL][3Pal][Sar][NMeL]S(tBu)[NMeF][NMeV]D-Piperidide; lactam N-11) | 3e-06 | 30 |
| CC(C)C[C@H]1C(=O)N[C@@H]([C@@H](C)O)C(=O)N(C)CC(=O)N(C)[C@@H](C(C)C)C(=O)N[C@@H](Cc2ccccc2)C(=O)N(C)[C@@H](Cc2cccc(Cl)c2)C(=O)N(C)[C@@H](CC(C)C)C(=O)N(C)[C@H](C(=O)N2CCCCC2)CC(=O)N2CCC[C@H]2C(=O)N[C@@H](Cc2ccccc2)C(=O)N[C@@H](COC(C)(C)C)C(=O)N1C [pd162] (PFS(tBu)[NMeL]T[Sar][NMeV]F[NMePhe(3-Cl)][NMeL][NMeD]-Piperidide; lactam N-11) | 1.2e-06 | 12 |
| CC(C)C[C@@H]1NC(=O)[C@H](Cc2ccccc2)N(C)C(=O)[C@@H](C)N(C)C(=O)C[C@@H](C(=O)N2CCCCC2)N(C)C(=O)[C@H](Cc2ccccc2)N(C)C(=O)[C@H](Cc2ccccc2)N(C)C(=O)[C@H](COC(C)(C)C)NC(=O)[C@H](C(C)C)N(C)C(=O)CN(C)C(=O)[C@H]([C@@H](C)O)NC(=O)[C@H](CC(C)C)N(C)C1=O [pd199] ([dNMeA][NMeF]L[NMeL]T[Sar][NMeV]S(tBu)[NMeF][NMeF][NMeD]-Piperidide; lactam N-11) | 2.6e-06 | 26 |
| CCCN1CC(=O)N(C)[C@@H](CC(C)C)C(=O)N[C@@H](COC(C)(C)C)C(=O)N(C)[C@@H](Cc2ccccc2)C(=O)N(C)[C@@H](Cc2ccccc2)C(=O)N[C@H](C(=O)N2CCCCC2)CC(=O)N[C@H](C)C(=O)N(C)[C@@H](Cc2ccccc2)C(=O)N[C@@H](C(C)C)C(=O)N(C)[C@@H](CC(C)C)C(=O)N[C@@H]([C@@H](C)O)C1=O [pd194] ([dA][NMeF]V[NMeL]T[NPrGly][NMeL]S(tBu)[NMeF][NMeF]D-Piperidide; lactam N-11) | 5.3e-06 | 53 |
| CC(C)C[C@H]1C(=O)N(C)[C@@H](CCc2ccccc2)C(=O)N[C@@H](COC(C)(C)C)C(=O)N(C)[C@@H](C)C(=O)N[C@H](C(=O)N2CCCCC2)CC(=O)N(C)[C@@H](C)C(=O)N(C)[C@@H](Cc2ccccc2)C(=O)N[C@@H](CCc2ccccc2)C(=O)N(C)[C@@H](CC(C)C)C(=O)N[C@@H]([C@@H](C)O)C(=O)N(C)CC(=O)N1C [pd184] ([NMeA][NMeF][hPhe][NMeL]T[Sar][NMeL][NMehPhe]S(tBu)[NMeA]D-Piperidide; lactam N-11) | 1.2e-06 | 12 |
| CC[C@H](C)[C@H]1C(=O)N[C@@H]([C@@H](C)O)C(=O)N(C)CC(=O)N(C)[C@@H](CC(C)C)C(=O)N[C@H](C(=O)N2CCCCC2)CC(=O)N(C)[C@@H](C(C)C)C(=O)N[C@@H](COCc2cncc(F)c2)C(=O)N(C)[C@@H](CC(C)C)C(=O)N(C)[C@@H](Cc2ccccc2)C(=O)N[C@@H](CC(C)C)C(=O)N(C)[C@@H](Cc2ccccc2)C(=O)N1C [pd181] ([NMeV]S(X2)[NMeL][NMeF]L[NMeF][NMeI]T[Sar][NMeL]D-Piperidide; lactam N-11) | 1.1e-06 | 11 |
| CC(C)C[C@H]1C(=O)N(C)[C@@H](Cc2ccccc2)C(=O)N[C@H](C(=O)N2CCCCC2)CC(=O)N(C)[C@@H](C(C)C)C(=O)N[C@@H](C)C(=O)N(C)[C@@H](Cc2ccccc2)C(=O)N(C)[C@@H](CC(C)C)C(=O)N(C)CC(=O)N[C@@H]([C@@H](C)O)C(=O)N(C)[C@@H](C(C)C)C(=O)N[C@@H](CCc2ccccc2)C(=O)N1C [pd182] ([NMeV]A[NMeF][NMeL][Sar]T[NMeV][hPhe][NMeL][NMeF]D-Piperidide; lactam N-11) | 2.6e-06 | 26 |
| CC(C)C[C@@H]1NC(=O)[C@H](Cc2ccccc2)N(C)C(=O)[C@H]2CCCN2C(=O)C[C@@H](C(=O)N2CCCCC2)N(C)C(=O)[C@H](Cc2ccccc2)N(C)C(=O)[C@H](Cc2ccccc2)N(C)C(=O)[C@H](COC(C)(C)C)NC(=O)[C@H](C(C)C)N(C)C(=O)CN(C)C(=O)[C@H]([C@@H](C)O)NC(=O)[C@H](CC(C)C)N(C)C1=O [pd200] ([dP][NMeF]L[NMeL]T[Sar][NMeV]S(tBu)[NMeF][NMeF][NMeD]-Piperidide; lactam N-11) | 2.6e-06 | 26 |
| CC(C)C[C@H]1C(=O)N(C)[C@@H](C(C)C)C(=O)N[C@@H](Cc2ccccc2)C(=O)N[C@H](C(=O)N(C)[C@@H](Cc2ccccc2)C(=O)N[C@@H](C)C(=O)N2CCCCC2)CC(=O)N(C)CCCC(=O)N[C@@H](C(C)C)C(=O)N(C)[C@@H](CC(C)C)C(=O)N[C@@H]([C@@H](C)O)C(=O)N(C)[C@@H](Cc2ccccc2)C(=O)NCC(=O)N1C [pd198] ([NMeGABA]V[NMeL]T[NMeF]G[NMeL][NMeV]FD[NMeF]A-Piperidide; lactam N-10) | 2.7e-06 | 27 |
| CC(C)C[C@H]1C(=O)N[C@H](C(=O)N2CCCCC2)CC(=O)N(C)[C@@H](C)C(=O)N[C@@H](CCCc2ccccc2)C(=O)N(C)[C@@H](CC(C)C)C(=O)N(C)[C@@H](Cc2ccccc2)C(=O)N[C@@H](C)C(=O)N(C)[C@@H](Cc2ccccc2)C(=O)N(C)[C@@H](C(C)C)C(=O)N[C@@H]([C@@H](C)O)C(=O)N(C)CC(=O)N1C [pd191] ([NMeA][hhPhe][NMeL][NMeF]A[NMeF][NMeV]T[Sar][NMeL]D-Piperidide; lactam N-11) | 1.5e-06 | 15 |
| CC(C)C[C@H]1C(=O)N[C@@H](CCCc2ccccc2)C(=O)N(C)[C@@H](Cc2ccccc2)C(=O)N(C)[C@@H](C(C)C)C(=O)N[C@H](C(=O)N2CCCCC2)CC(=O)N[C@H](C)C(=O)N(C)[C@@H](Cc2ccccc2)C(=O)N[C@@H](C(C)C)C(=O)N(C)[C@@H](CC(C)C)C(=O)N[C@@H]([C@@H](C)O)C(=O)N(C)CC(=O)N1C [pd193] ([dA][NMeF]V[NMeL]T[Sar][NMeL][hhPhe][NMeF][NMeV]D-Piperidide; lactam N-11) | 1e-06 | 10 |
| CC(C)C[C@H]1C(=O)N[C@@H](COC(C)(C)C)C(=O)N(C)[C@@H](Cc2ccccc2)C(=O)N(C)[C@@H](C)C(=O)N[C@H](C(=O)N2CCCCC2)CC(=O)N[C@H](C(C)C)C(=O)N(C)[C@@H](Cc2ccccc2)C(=O)N[C@@H](CCCc2ccccc2)C(=O)N(C)[C@@H](CC(C)C)C(=O)N[C@@H]([C@@H](C)O)C(=O)N(C)CC(=O)N1C [pd192] ([dV][NMeF][hhPhe][NMeL]T[Sar][NMeL]S(tBu)[NMeF][NMeA]D-Piperidide; lactam N-11) | 1.1e-06 | 11 |
| CC(C)C[C@@H]1NC(=O)[C@H](Cc2ccccc2)N(C)C(=O)[C@@H]2CCCN2C(=O)C[C@@H](C(=O)N2CCCCC2)N(C)C(=O)[C@H](Cc2ccccc2)N(C)C(=O)[C@H](Cc2ccccc2)N(C)C(=O)[C@H](COC(C)(C)C)NC(=O)[C@H](C(C)C)N(C)C(=O)CN(C)C(=O)[C@H]([C@@H](C)O)NC(=O)[C@H](CC(C)C)N(C)C1=O [pd196] (P[NMeF]L[NMeL]T[Sar][NMeV]S(tBu)[NMeF][NMeF][NMeD]-Piperidide; lactam N-11) | 4e-06 | 40 |
| CC[C@H](C)[C@@H]1NC(=O)[C@H](Cc2ccccc2)N(C)C(=O)CN(C)C(=O)C[C@@H](C(=O)N2CCCCC2)NC(=O)[C@H]([C@@H](C)CC)N(C)C(=O)C(COCc2ccccc2)NC(=O)[C@H](CC(C)C)N(C)C(=O)[C@H](Cc2ccccc2)N(C)C(=O)CN(C)C(=O)[C@H]([C@@H](C)O)NC(=O)[C@H](CC(C)C)N(C)C1=O (stereo partly drawn) [pd178] ([Sar][NMeF]I[NMeL]T[Sar][NMeF][NMeL][ξS](Bn)[NMeI]D-Piperidide; lactam N-11) | 2.5e-06 | 25 |
